Test results taken from patent US20210017607A1, “Methods of Predicting Responsiveness to Cancer Therapies” (The University of Chicago, priority 2019, published 2021).

Tested on: Myc-CAP-PTEN^−/− cells
Test: Myc-CAP-PTEN−/− cells in vitro (western blotting, cytokine array)
Assay type: cell-based, mouse
Settings: 24 hours
Description: FIGS. 35A-35D. […] (35A) Myc-CAP-PTEN^−/− cells were treated with copanlisib […] (IC90 concentration) in vitro for 24 hours, and protein extracts were harvested for western blotting analysis with the indicated antibodies to analyze PI3K activation. (35B) Supernatants from (35A) were harvested for cytokine array profiling. n=3 independent in vitro experiments. (35C) Mice bearing Myc-CAP-PTEN^−/− established syngeneic tumors (200 mm^3) were treated with copanlisib (14 mg/kg, every other day, until tumors reached 2000 mm^3). Tumor volumes were monitored daily and graphed. (35D) At the end of treatment, tumors were analyzed by flow cytometry for tumor infiltrating immune cell subsets. n=5 mice per group.
FIGS. 49A and 49B. PTEN-deficient cancer cells have diminished STING expression that can be restored by […] and pan-PI3K inhibitors. (49A) Isogenic MC38, Myc-CAP, ID8, and TRAMP cells (−/+ PTEN) were analyzed for STING mRNA and protein expression by qRT-PCR and western blotting, respectively. (49B) Myc-CAP-PTEN^−/− cells were treated with GSK′771 (PI3Kβ-selective inhibitor, 1 μM) or BKM120 (pan-PI3K inhibitor, 1 μM) for 24 hours, and proteins were analyzed for STING expression and PI3K activation by western blotting.
Cancer Cell Lines and in vitro drug treatments. Transgenic c-myc^hi prostate tumor derived cell line, Myc-CAP and TRAMPC1, ovarian cancer cell line ID8 and murine colon adenocarcinoma line MC38 were obtained from the American Type Culture Collection (ATCC) and passaged in either 1×RPMI/1×DMEM (with phenol) or 1×DMEM (without phenol red) containing 10% fetal bovine serum, 1% penicillin-streptomycin, 2% L-glutamine and 1×ITS. ID8^pten−/−p53−/−cells were a kind gift from Dr. Ian McNeish (Imperial College, London). For generation of STING over expressing cell lines −Myc-CAP^pten+/+ and ID8^pten−/− cells were transfected with commercial available plasmid (DC-Mm22462-SH02, Genecoepia™), sorted and expanded as per protocol. […]

| SMILES | STING expression (western blotting) (1 μM) | CXCL1 production (copanlisib 100 nm, cytokine array) |
| --- | --- | --- |
| Nc1cc(C(F)(F)F)c(-c2cc(N3CCOCC3)nc(N3CCOCC3)n2)cn1 [buparlisib] | restored | – |
| COc1c(OCCCN2CCOCC2)ccc2c1N=C(NC(=O)c1cnc(N)nc1)N1CCN=C21 [copanlisib] | – | decreasing CXCL1 production |
